# Experimental data published in US7622500B2, “Antiparasitic agents” (Pfizer Limited, priority 2007, dated 2009).
# System: Haemonchus contortus L3
# Assay: Haemonchus contortus L3 (HcL3) in vitro test
# Assay type: cell-based
# Details: minimum effective dose, exsheathed L3 larvae, 37° C., observed 2 hrs to 4 days, dose responses 100-0.1 μg/ml, n=2, read-out: H.c. (L3) MED
# Protocol: The Haemonchus contortus L3 (HcL3) test is used to measure the biological activities of the compounds claimed. The assay involves in vitro testing against H. contortus conducted according to the following general procedure.
# HcL3 larvae were collected from infected sheep and, after cleaning, stored in water at 12° C. for up to one month. Viable infective larvae were exsheathed using 10% hypochlorite in Glucose Tyrodes balanced salt solution containing antibiotics and resuspended in basal medium (20 g/l bacto-tryptone, 5 g/l yeast extract, 57 g/l glucose, 0.8 g/l di-Potassium hydrogen orthophosphate, 0.8 g/l potassium dihydrogen orthophosphate and […] Hepes with antibiotics). 95 μl worm suspension was added to each well of a 96 well plate.
# Test compounds were dissolved in dimethylsulfoxide to give a working stock solution of 20 mg/ml. The stock concentration was diluted 1:10 in Basal media to give 2.0 mg/ml (10% DMSO). 5 μl of the stock compound solution was added to the worm suspension to give a final concentration of 100 μg/ml. Plates were sealed with pressure sensitive film and incubated at 37° C. Observations were made 2 hrs, 24 hrs, 48 hrs, 72 hrs and 4 days post-treatment using an inverted microscope. Activity was recorded if a significant proportion of the worms were dead or adversely affected by the compound when compared to the control well containing 1% DMSO. Compounds were initially tested at 100 μg/ml, wherefrom relevant dose responses (100, 30, 10, 3, 1, 0.3, 0.1 μg/ml) were conducted in duplicate experiments to generate n=2. Data was recorded as minimum effective dose.
smiles,measurement,value
"CC(C#N)(NC(=O)c1ccc(C(F)(F)F)cc1)C1Cc2cc(Cl)ccc2O1 (centres unmarked) [Example 5, N-[1-(5-Chloro-2,3-dihydro-1-benzofuran-2-yl)-1-cyanoethyl]-4-(trifluoromethyl)benzamide]",minimal effective concentration,30 µg/mL
"CC(C#N)(NC(=O)c1ccc(SC(F)(F)F)cc1)C1Cc2cccc(C#N)c2O1 (centres unmarked) [Example 7, N-[1-Cyano-1-(7-cyano-2,3-dihydro-1-benzofuran-2-yl)ethyl]-4-[(trifluoromethyl)thio]benzamide]",minimal effective concentration,10 µg/mL
"CC(C#N)(NC(=O)c1ccc(SC(F)(F)F)cc1)C1Cc2cc(C#N)ccc2O1 (centres unmarked) [Example 2, N-[1-Cyano-1-(5-cyano-2,3-dihydro-1-benzofuran-2-yl)ethyl]-4-[(trifluoromethyl)thio]benzamide]",minimal effective concentration,3 µg/mL
"CC(C#N)(NC(=O)c1ccc(S(F)(F)(F)(F)F)cc1)C1Cc2cc(C#N)cc(Cl)c2O1 (centres unmarked) [Example 9, N-[1-(7-Chloro-5-cyano-2,3-dihydro-1-benzofuran-2-yl)-1-cyanoethyl]-4-(pentafluorothio)benzamide]",minimal effective concentration,< 1 µg/mL
"CC(C#N)(NC(=O)c1ccc(OC(F)(F)F)cc1)C1Cc2cc(C#N)ccc2O1 (centres unmarked) [Example 1a, N-[1-Cyano-1-(5-cyano-2,3-dihydro-1-benzofuran-2-yl)ethyl]-4-(trifluoromethoxy)benzamide]",minimal effective concentration,3 µg/mL
"CC(C#N)(NC(=O)c1ccc(OC(F)(F)F)cc1)C1Cc2cccc(C#N)c2O1 (centres unmarked) [Example 6, N-[1-Cyano-1-(7-cyano-2,3-dihydro-1-benzofuran-2-yl)ethyl]-4-(trifluoromethoxy)benzamide]",minimal effective concentration,10 µg/mL
"CC(C#N)(NC(=O)c1ccc(OC(F)(F)F)cc1)C1Cc2cc(C#N)cc(Cl)c2O1 (centres unmarked) [Example 8, N-[1-(7-Chloro-5-cyano-2,3-dihydro-1-benzofuran-2-yl)-1-cyanoethyl]-4-(trifluoromethoxy)benzamide]",minimal effective concentration,< 1 µg/mL
"CC(C#N)(NC(=O)c1ccc(OC(F)(F)F)cc1)C1Cc2ccccc2O1 (centres unmarked) [Example 3, N-[1-Cyano-1-(2,3-dihydro-1-benzofuran-2-yl)ethyl]-4-(trifluoromethoxy)benzamide]",minimal effective concentration,30 µg/mL
